These results are taken from US10670605B2, “Cysteine reactive probes and uses thereof” (The Scripps Research Institute, priority 2015, dated 2020).

*: point of attachment. Cbz = O=C(OCc1ccccc1)*; CH2F = FC*

The IC50 is the point on the concentration scale where inhibition reaches its midpoint.

The test system of test [1] is Jurkat cells. Description: FasL-induced (extrinsic) apoptosis, CellTiter-Glo viability. The format is cell-based, human. In general terms: Cellular ATP, detected with luciferase, serves as a proxy for viable cell number.
Test [2] concerns Jurkat cells. Kind of test: Staurosporine-induced (intrinsic) apoptosis, CellTiter-Glo viability. Type of test: cell-based, human. Conditions: 30 μM (VAD-FMK 100 μM), 30 min before STS, 6 h. As for the experimental part: 4 mL of Jurkat cells in RPMI (1.5 million cells/mL) were treated with the indicated compound at 30 μM for 30 min (50 mM stock solution in DMSO). Z-VAD-FMK (EMD Millipore Biosciences, 627610) and was used at a final concentration of 100 μM. After pre-incubation, FASL (4 μL of […] stock solution of SuperFasLigandm in water, final concentration=100 ng/mL, Enzo life Sciences) or staurosporine (8 μL of 1 mM stock solution in DMSO, final concentration=2 μM, Fisher Scientific, 50664333). […] The gels were transferred to nitrocellulose membranes and were immunoblotted overnight with the indicated antibodies. For measurements of cell viability, in quadruplicate for each condition, 150,000 cells (100 μL of 1.5 million cells/mL) were plated in Nunc™ MicroWell™ 96-Well Optical-Bottom Plates with Polymer Base (Fisher Scientific). Compounds, FASL and STS were used at the same concentrations indicated above with a 30 minute pre-incubation with compound, followed by 6 hours with either STS or FASL or DMSO. Cell viability was measured with CellTiter-Glo® Luminescent Cell Viability Assay (Promega) and was read on a Biotech Synergy 4 plate reader.

Another test addresses T1, pro-CASP8 (Homo sapiens, UniProt Q14790, D374A/D384A).
T1 construct: a truncated CASP8 (residues 217-479) without the CARD domain; His6 (C); made in house; host or cells: E. coli BL21(DE3)pLysS
Kind of test: Click probe 61 labeling of pro-CASP8 and its competition. Conditions: 300 nM protein in MDA-MB-231 lysate; read-out: apparent IC50 for blockade of 61 labeling of pro-CASP8. Type of test: binding.

A further test has as its target pro-CASP10 (Homo sapiens, UniProt Q92851). Kind of test: Blockade of probe 61 labeling of pro-CASP10. Type of test: binding. Conditions: 300 nM protein in MDA-MB-231 lysate; read-out: apparent IC50 for blockade of 61 labeling of pro-CASP10.
A further test relates to primary human T cells. Description: FasL-induced apoptosis in activated primary T cells. The format is cell-based. Conditions: anti-CD3, anti-CD28-activated primary human T cells.
For a further test, the target named is T2, CASP8 (Homo sapiens, UniProt Q14790).
T2 construct: caspases measured by quantitative proteomics in Jurkat cells treated with 7, 63-R, or 62 followed by probe 61; endogenous in cells; host or cells: Jurkat cells (SILAC), treated in situ
T2 sequence (Q14790 217-479): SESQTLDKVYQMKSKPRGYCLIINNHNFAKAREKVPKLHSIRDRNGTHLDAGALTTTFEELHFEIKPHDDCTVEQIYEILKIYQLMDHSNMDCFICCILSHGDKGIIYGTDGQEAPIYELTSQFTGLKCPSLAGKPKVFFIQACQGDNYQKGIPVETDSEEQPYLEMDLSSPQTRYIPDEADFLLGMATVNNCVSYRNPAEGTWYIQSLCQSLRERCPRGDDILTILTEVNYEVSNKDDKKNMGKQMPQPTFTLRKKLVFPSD
Kind of test: Quantitative proteomics (ABPP-SILAC) with probe 61 in cells. Type of test: cell-based. To be noted: primary human T cells and Jurkat cells.

A further test deals with T3, active CASP10 (Homo sapiens, UniProt Q92851).
T3 sequence (Q92851 220-415 limits assumed): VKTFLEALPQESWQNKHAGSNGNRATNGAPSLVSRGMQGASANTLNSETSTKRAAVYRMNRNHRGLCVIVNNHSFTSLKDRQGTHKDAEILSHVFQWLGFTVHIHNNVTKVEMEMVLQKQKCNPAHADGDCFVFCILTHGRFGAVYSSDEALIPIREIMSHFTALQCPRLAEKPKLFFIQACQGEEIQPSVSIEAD
T3 sequence (Q92851 416-521 limits assumed): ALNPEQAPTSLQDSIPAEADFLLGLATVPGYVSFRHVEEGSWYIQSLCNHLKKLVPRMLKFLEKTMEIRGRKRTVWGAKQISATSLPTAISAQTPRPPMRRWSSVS
Kind of test: Active CASP10 activity assay (AEVD-AMC substrate). To be noted: fragments 25 μM; DEVD-CHO 20 μM. The format is biochemical.

Test [3] has as its target T4, active CASP8 (Homo sapiens, UniProt Q14790). Kind of test: Rho-DEVD-AOMK probe labeling of active CASP8. To be noted: 7 50 μM; Ac-DEVD-CHO 20 μM.
In test [4] the target is T4, active CASP8. Description: CASP8 in vitro activity assay (substrate). Conditions: fragments 100 μM; DEVD-CHO 20 μM. Also on record: recombinant, purified active-CASP8 and active-CASP3 added to MDA-MB-231 cell lysates; His6 (C); made in house; host or cells: E. coli BL21(DE3)pLysS. The format is biochemical. As for the experimental part:
Caspase 3 and 8 assays were conducted with CASP8 activity assay kit (BioVision, K112-100) and Caspase 3 activity assay kit (Invitrogen, EnzChek® Caspase-3 Assay Kit), following the manufacturer's instructions. Briefly, recombinant Caspase 3 (10 μM) was added to soluble Ramos lysates (1 mg/mL) to a 100 nM final concentration of protease. Caspase 8 (30 μM) was added to soluble Ramos lysates to a 1 μM final concentration of protease. In triplicate, 50 μL lysate was treated with either DMSO, DEVD-CHO (“DEVD” disclosed as SEQ ID NO: 857) (20 μM) or the indicated compounds (100 μM) for 1 h, following which 50 μL of 2× reaction buffer containing 10 mM DTT and 5 μL substrate (4 mM stock in DMSO of IETD-AFC (“IETD” disclosed as SEQ ID NO: 858) for CASP8; 10 mM stock in DMSO of DEVD-AMC (“DEVD” disclosed as SEQ ID NO: 857) for CASP3) was added to each well and the samples were incubated at ambient temperature for 2 h. Caspase activity was measured from the increase in fluorescence (excitation 380 nm emission 460 nm). Experiments were performed in triplicate. Background was calculated from samples lacking the recombinant caspase.

T4 sequence (Q14790 217-374 limits assumed): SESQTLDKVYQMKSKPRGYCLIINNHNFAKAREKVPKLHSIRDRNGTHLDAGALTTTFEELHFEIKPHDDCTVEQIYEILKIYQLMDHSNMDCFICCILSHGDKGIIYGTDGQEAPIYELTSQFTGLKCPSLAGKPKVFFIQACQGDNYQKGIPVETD
T4 sequence (Q14790 385-479 limits assumed): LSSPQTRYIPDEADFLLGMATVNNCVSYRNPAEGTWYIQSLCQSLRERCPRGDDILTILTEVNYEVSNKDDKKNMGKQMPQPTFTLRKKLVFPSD
pro-CASP10, sequence (Q92851 220-521): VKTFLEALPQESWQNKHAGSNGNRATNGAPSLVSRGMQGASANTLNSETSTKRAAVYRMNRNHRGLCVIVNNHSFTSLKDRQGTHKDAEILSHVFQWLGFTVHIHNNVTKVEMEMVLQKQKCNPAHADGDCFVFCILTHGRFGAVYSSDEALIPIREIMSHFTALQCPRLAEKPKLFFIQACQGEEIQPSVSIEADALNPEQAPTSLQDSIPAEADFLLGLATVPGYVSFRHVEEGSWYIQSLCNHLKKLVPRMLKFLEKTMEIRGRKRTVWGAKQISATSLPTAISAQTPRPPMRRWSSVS
T1 sequence (Q14790 217-479 D374A/D384A): as the sequence (Q14790 217-479) above, with D158A, D168A counted along it

As to “Cbz-Val-Ala-Asp-CH2F [reference compound]”, the FasL-induced apoptosis entry with Jurkat cells [1] (30 μM (VAD-FMK 100 μM), 30 min before FASL, 6 h) is on record as “prevented”. Besides, in the test on Jurkat cells [2], the STS-induced intrinsic apoptosis result is “prevented”.

Consider `O=C(c1ccc(N2CCOCC2)cc1)N1CCC[C@@H](N(C(=O)CCl)c2ccccc2)C1` [63-R], for which the half-inhibitory concentration (IC50) was 700 nM at pro-CASP8 and above 100000 nM at pro-CASP10. Also, the FasL-induced apoptosis entry is on record as “fully blocked” in the test on Jurkat cells [1] (Jurkat cells, concentration series, 4 h) and “substantial resistance” with primary human T cells. In addition, the “blockade of CASP8 (chemical proteomics with probe 61)” value at CASP8 is “inhibited”.

As for Ac-DEVD-CHO [reference compound], the “activity of active CASP10 (substrate assay)” value in the test with active CASP10 was “inhibited”. The “Rho-DEVD-AOMK labeling of active CASP8” value with active CASP8 [3] is listed as “blocked”. Further, the “CASP8 activity (substrate assay)” value with active CASP8 [4] is “blocked”.
